Source: patent publication US9725490B2, “ERAP1-derived peptide and use thereof” (TOKUSHIMA UNIVERSITY, priority 2011, dated 2017)
Where a SMILES comes first, the peptide text is derived from it. The star is where a group is joined. Cbz = O=C(OCc1ccccc1)*

What was measured:
MCF-7 cells = assay: E2-dependent cell proliferation assay (MTT/CCK-8), MCF-7; assay type: cell-based, human; conditions: 10 nM E2, up to 24 hours
Description: FIG. 6-1 is a diagram illustrating that ERAP1-peptide treatment suppresses ERα-dependent cell proliferation of breast cancer cell lines. (A) and (B) show the results of MTT assay by which the inhibition effect of the ERAP1-peptide in the E2-dependent cell proliferation was evaluated. MCF-7 cells were treated with the ERAP1-peptide (A, B) the ERAP1-scramble peptide (B) or the ERAP1-mutant peptide (B).
FIG. 7-1 is a diagram illustrating that ERAP1-peptide treatment suppresses ERα-dependent cell proliferation of breast cancer cell lines. […] KPL-3C cells were treated with the ERAP1-peptide, the scramble peptide or the mutant peptide. Then, immediately, the cells were stimulated with 10 nM E2 for 24 hours. […] Then, immediately, the cells were stimulated with 10 nM E2. Then, the ERAP1-peptide was added every day for […]. […] The arrow indicates addition of the ERAP1-peptide.
FIG. 7-3 is a diagram illustrating that ERAP1-peptide treatment suppresses ERα-dependent cell proliferation of breast cancer cell lines. […] MCF-7 cells were treated with 10 μM ERAP1-peptide. Then, immediately, the cells were stimulated with 10 nM E2 (white square). Then, 10 μM ERAP1-peptide was added every day for four days (black square).
FIG. 20 is a diagram illustrating the results of evaluations for the influence of the difference of the sequence on E2-dependent cell proliferation suppression effect. […] Then, immediately, the cells were stimulated with E2 for 24 hours.
MCF-7 cells were suspended in MEM (Invitrogen, Carlsbad, Calif., USA) reinforced with 10% FBS (Nichirei Biosciences, Tokyo, Japan), 1% antibiotic/antimycotic solution (Invitrogen), 0.1 mM NEAA (Tnvitrogen), 1 mM sodium pyruvate and 10 μg/ml insulin (Sigma, St. Louis, Mo., USA). Then, the cell suspension was seeded in a 48-well plate (2×10^4 cells/200 μl), a 24-well plate (1×10^5 cells/1 ml), a 6-well plate (5×10^5 cells/2 ml) or 10 cm dish (2×10^6 cells/10 ml). The cells were maintained at 37° C. in humidified atmosphere containing 5% carbon dioxide. On the next day of the seeding, the culture medium was exchanged with phenol red-free DMEM/F12 (Invitrogen) reinforced with FBS, an antibiotic/antimycotic solution, NEAA, sodium pyruvate and insulin. After 24 hours, the cells were treated with 10 nM 17β estradiol (E2, Sigma). The ERAP-1 peptide was added just before the E2 stimulation in the inhibition test.
Using Cell-Counting Kit-8 (CCK-8, Dojindo, Kumamoto, Japan), the cell proliferation assay was performed. […] Then, the absorbance at 450 nm was measured and the number of living cells in each well was calculated.
The cell proliferation assay was evaluated using Cell-Counting Kit-8 (CCK-8, Dojindo, Kumamoto, Japan). […] Then, 100 μl from each well was moved to a 96-well plate, and the absorbance at 450 nm was measured with a microplate reader.

ERα = ERα down-regulation and polyubiquitination in MCF-7 cells; assay type: cell-based, human; conditions: MCF-7, E2 in the presence of MG132, no peptide
Description: FIG. 4-5 is a diagram illustrating that the ERAP1-peptide promotes nuclear translocation of PHB2. […] Then, the protein level and the mRNA level for the expression of ERα were obtained by Western blotting (the upper panel: Protein) and semi-quantitative RT-PCR (the lower panel: mRNA), respectively. β-actin is a loading control for each. […] MCF-7 cells were treated with the ERAP1-peptide and/or E2 in the presence of 1 μM MG-132 for 1 hour. Then, the cell lysate was immunoprecipitated with anti-ERα antibody.
Down-regulation of ERα was evaluated by semi-quantitative reverse transcription PCR. Complete RNA was extracted using RNeasy Mini purification kit (Qiagen) from E2-treated cells in the presence or in the absence of the ERAP1 peptide, and reverse-transcribed into cDNA using Superscript II reverse transcriptase (Invitrogen), oligo dT primer (nvitrogen) and 25 mM dNTP Mixture (Invitrogen). mRNAs of ERα and β-actin were measured with GeneAmp PCR system (Applied Biosystems, Foster, Calif., USA). The primers are as described below: […]

[1] = target: T1, binding of inherent ERAP1 and inherent PHB2/REA (Homo sapiens, UniProt Q99623); assay: Inhibition of ERAP1-PHB2/REA binding in cells, immunoprecipitation-Western blotting; assay type: cell-based; conditions: MCF-7 and KPL-3C cells; 10 μM peptide; 10 nM E2 24 hours
T1 construct: endogenous in cells; host or cells: MCF-7 and KPL-3C breast cancer cells

[2] = system: transcriptional activity of ERα (ERE); assay: ERE-luciferase reporter assay in MCF-7 cells; assay type: cell-based, human; conditions: 10 nM E2 24 hours
Description: FIG. 3-2 is a diagram illustrating promotion effect of PHB2 nuclear translocation and suppression effect of the transcriptional activation of ER by ERAP1-peptide treatment. (C) illustrates representative images of stained immune cells, showing the localization of the ERAP1-peptide (HA-tagged ERAP1-peptide) and PHB2. MCF-7 cells were treated with 10 μM HA-tagged ERAP1-peptide for 24 hours in the presence or in the absence of 10 nM E2. After the immobilization, the cells were subjected to immunonfluorescent staining using an anti-HA antibody, an anti-PHB2 antibody and DAPI (for discriminating the nucleus). The arrow indicates the nuclear-translocated ERAP1-peptide. […] Then, immediately, the cells were stimulated with 10 nM E2 for 24 hours. TAM indicates the tamoxifen treatment.
(§1) FIG. 3-3 is as diagram illustrating the results of the luciferase assay by which the inhibition effect of the ERAP1-peptide was evaluated. MCF-7 cells temporarily transfected with an ERE-luciferase reporter vector (F) or an AP-1-luciferase reporter vector (F) were treated with the ERAP1-peptide, the scramble peptide or the mutant peptide in the concentrations shown in the […]. Then, immediately, the cells were stimulated with 10 nM E2 for 24 hours. TAM indicates the tamoxifen treatment.
(§2) FIG. 4-3 is a diagram illustrating that the ERAP1-peptide promotes nuclear translocation of PHB2. (C) and (D) are figures that show the results of the luciferase assay by which the inhibition effect of the ERAP1-peptide on the ERα transcriptional activity was evaluated. MCF-7 cells temporarily transfected with an ERE-luciferase reporter vector (C) or an AP-1-luciferase reporter vector (D) were treated with the ERAP1-peptide in the concentrations shown in the figure or 10 nM tamoxifen. Then, immediately, the cells were stimulated with 10 nM E2 thr 24 hours.
(§3) For ERE reporter assay, MCF-7 cells were transfected with ERE reporter (SABiosciences, Frederick, Md., USA) in accordance with the instruction of the manufacturer. For AP-1 reporter assay, MCF-7 cells were transfected with AP-1 reporter (mouse IL-11 promoter comprising two tandem AP-1 sites subcloned into PGL2-basic vector), c-fos, c-Jun and pRL-TK as an internal standard. After 16 hours from the transfection, the culture medium was exchanged with an assay culture medium (Opti-MEM, 10% FBS, 0.1 mM NEAA, 0.1 mM Sodium pyruvate and 10 μg/ml insulin) After 24 hours from the transfection, the cells were treated with E2 and/or the ERAP1-peptide or 24 hours. The cells were harvested, and the activities of luciferase and Renilla-luciferase were evaluated using Promega dual luciferase reporter assay (Tokyo, Japan). In consideration of the transfection efficiency, all of the data were standardized by the activity of Renilla-luciferase.

[3] = system: transcriptional activity of ERα (AP-1); assay: AP-1-luciferase reporter assay in MCF-7 cells; assay type: cell-based, human; conditions: 10 nM E2 24 hours
Description: as §1, §2, §3

[4] = system: phosphorylation of ERAP1 and PHB2/REA; assay: PKA inhibition by H-89, immunoblotting of ERAP1 and PHB2/REA phosphorylation, MCF-7; assay type: cell-based, human
Description: Then, the cell lysate solution was immunoprecipitated with anti-ERAP1 antibody. Furthermore, the phosphatase activity of the obtained sample was calculated. […] MCF-7 cells suppressed for expression of PKA or PKB, or both of PKA and PKB by siRNA method, were treated with 10 μM ERAP1 peptide. Then, immediately, the cells were stimulated with 10 nM E2 for 24 hours. […] MCF-7 cells were treated with H-89 for 30 minutes and washed with PBS. Then, the cells were treated with 10 μM ERAP1-PEPTIDE. Then, immediately, the cells were stimulated with 10 nM E2 for 24 hours. […] (S39) is caused. MCF-7 cells suppressed for expression of PKA by siRNA method, were stimulated with 10 nM E2 for 24 hours. In addition, MCF-7 cells were treated with H-89 for 30 minutes and washed with PBS. Then, immediately, the cells were stimulated with 10 nM E2 for 24 hours. […] Then, immediately, the cells were stimulated with 10 nM E2 for 24 hours. […] MCF-7 cells suppressed for expression of PKCα by siRNA method were treated with 10 μM ERAP1 peptide. Then, immediately, the cells were stimulated with 10 nM E2 for 24 hours. The cells were fractionated into cytoplasm and nuclear fractions by specific gravity centrifugation.

[5] = H-89 30 minutes, then E2 24 hours
[6] = comparison with siPKA, increasing dose of H-89

T1 sequence (Q99623 2-299 limits assumed): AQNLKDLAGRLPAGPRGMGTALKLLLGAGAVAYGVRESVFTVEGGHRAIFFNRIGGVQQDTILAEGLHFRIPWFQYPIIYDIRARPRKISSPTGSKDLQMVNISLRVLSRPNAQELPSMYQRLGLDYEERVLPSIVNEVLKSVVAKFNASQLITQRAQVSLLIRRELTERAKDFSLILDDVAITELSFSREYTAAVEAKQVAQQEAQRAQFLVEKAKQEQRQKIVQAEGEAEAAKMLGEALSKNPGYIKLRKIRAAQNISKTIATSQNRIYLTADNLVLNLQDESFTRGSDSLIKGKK

Compound: ATLSQMLSDLTLQ (SEQ ID NO: 30) (ERAP1 dominant negative peptide) [ERAP1-peptide-2, 161-173 amino acid residues of ERAP1]
- E2-dependent cell proliferation (MCF-7 cells): suppressed the E2-dependent cell proliferation in dose-dependent manner

Compound: CC(C)C[C@@H](C=O)NC(=O)[C@H](CC(C)C)NC(=O)[C@H](CC(C)C)NC(=O)OCc1ccccc1 [MG132, reference compound] (Cbz-Leu-Leu-Leu-aldehyde)
- protein decrease and polyubiquitination of ERα with E2 (ERα): the protein decrease of ERα was suppressed and polyubiquitination of ERα was recognized

Compound: AMLSALTLALRQR (SEQ ID NO: 29) (ERAP1-mutant peptide)
- inhibition of the binding of inherent ERAP1 and inherent PHB2/REA [1]: not recognized in any of the cells
- transcriptional activity of ERα in ERE [2]: no change was recognized
- transcriptional activity of ERα in AP-1 [3]: no change was recognized

Compound: O=S(=O)(NCCNC/C=C/c1ccc(Br)cc1)c1cccc2cnccc12 [H-89]
- phosphorylation of the threonine residue of ERAP1 [4, 5]: decreased in dose-dependent manner
- phosphorylations of the serine and tyrosine residues of ERAP1 [4, 5]: remarkably decreased at 0.5 μM
- Ser39 phosphorylation of PHB2/REA after E2 treatment [4, 6]: as the dose of H-89 increased, Ser39 phosphorylation of PHB2/REA also decreased
- phosphorylation of the serine residue of ERAP1 after E2 treatment [4, 6]: as the dose of H-89 increased, disappearance of the phosphorylation was confirmed
- phosphorylation of Ser39 of PHB2/REA ([4]; stimulated by E2 and treated with H-89, no peptide): remarkable recovery was recognized
- phosphorylation of Ser39 of PHB2/REA ([4]; with ERAP-peptide, 20 μM H-89): the phosphorylation completely disappeared
